Laboratory results: patent US5585356A, “Matrix metalloproteinase peptides: role in diagnosis and therapy” (priority 1994, dated 1996)
Where no end group is shown, it is not given here.

Experiments:
type IV procollagenase = type IV procollagenase (Homo sapiens, UniProt P08253); settings: 10 mM EDTA; 1 mM pAPMA, 37° C.
Description: 20 μl aliquots of A2058 melanoma cell conditioned media were activated in the presence of 1.0 mM pAPMA for the indicated times (min). The reactions were stopped by the addition of EDTA to 10 mM and the samples were electrophoresed on a 9% acrylamide gel with or without gelatin. The gelatin containing gels were developed as zymograms after electrophoresis.
Stock solutions of 0.01M p-APMA in 0.05N NaOH were prepared fresh daily. Proenzyme samples were incubated with a final concentration 0.5 or 1.0 mM p-APMA for varying times (0-16 hours) at 37° C. Following incubation, the samples were analyzed directly by NaDodSO4 -PAGE on 9% acrylamide gels containing 0.1% gelatin (gelatin zymogram). Alternatively, the samples were run on 9% NaDodSO4 -PAGE and electroblotted onto Immobilon P membranes (Millipore).

type IV collagenase = target: T1, type IV collagenase (Homo sapiens, UniProt P08253); test: soluble type IV collagenase assay (3H-type IV collagen degradation); assay type: biochemical; settings: peptide 0.1 mM; purified activated type IV collagenase, pepsinized type IV collagen (FIG. 11)
T1 construct: endogenous in cells; host or cells: human A2058 melanoma cells
T1 sequence (P08253 110-660): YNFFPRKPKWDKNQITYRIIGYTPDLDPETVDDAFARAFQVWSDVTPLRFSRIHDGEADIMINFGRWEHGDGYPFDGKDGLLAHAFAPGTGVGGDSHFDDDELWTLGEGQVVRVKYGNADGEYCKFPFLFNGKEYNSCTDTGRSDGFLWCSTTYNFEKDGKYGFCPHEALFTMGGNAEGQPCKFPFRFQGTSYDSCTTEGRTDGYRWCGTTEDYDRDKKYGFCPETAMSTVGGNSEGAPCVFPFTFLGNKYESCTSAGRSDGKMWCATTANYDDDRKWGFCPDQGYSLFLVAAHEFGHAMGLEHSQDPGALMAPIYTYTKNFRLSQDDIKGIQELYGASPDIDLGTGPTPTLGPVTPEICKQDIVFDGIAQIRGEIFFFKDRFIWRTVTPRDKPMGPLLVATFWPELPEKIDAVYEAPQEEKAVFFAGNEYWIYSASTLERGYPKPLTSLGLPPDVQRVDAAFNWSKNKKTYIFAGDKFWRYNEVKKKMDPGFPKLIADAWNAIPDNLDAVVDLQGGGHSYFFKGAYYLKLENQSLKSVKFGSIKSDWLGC
Description: FIG. 11 illustrates the dose dependent inhibition of purified activated type IV collagenase cleavage of pepsinized type IV collagen by the designated synthetic peptides. Peptide TMRKPRCGNPDVAN at a concentration of 0.1 mM inhibits 80% of the enzyme activity.
The procedure for the collagenase assay of this example utilized the following preparation.
1. Place enzyme sample activator (usually 1 mM pAPMA) and test solution in 1.5 ml Eppendorf tube. Combined volume must equal 60 μl. Add 1× collagenase buffer, if necessary. If necessary, preincubate.
2. Prepare type Iv collagen substrate by diluting stock ^3 H-type IV collagen (NEN #NET-931 lot #2511-018) 1:120 with 1× collagenase buffer. Heat to 55° C. for 10 minutes and cool on ice.
3. Add 5 μl of diluted mH-type IV collagen solution to each assay tube. Vortex to mix and incubate at 28° C. for 4 hours.
4. At the end of the incubation period, add 2 μl of carrier BSA solution and 7 μl of TCATAP solution. Vortex mix and allow to stand on ice for at least 10 minutes.
5. Pellet the precipitate by centrifuging in the microfuge for 10 minutes with the speed set at 6. Orient the tubes when placing them in the microfuge in order that the position of the pellet will be known.
6. Immediately after centrifugation, aspirate 55 μl of the supernatant and place in a scintillation vial. Add 5 ml of scintillation cocktail, shake well and count. […]

Chain of type IV procollagenase (P08253 30-660 limits assumed): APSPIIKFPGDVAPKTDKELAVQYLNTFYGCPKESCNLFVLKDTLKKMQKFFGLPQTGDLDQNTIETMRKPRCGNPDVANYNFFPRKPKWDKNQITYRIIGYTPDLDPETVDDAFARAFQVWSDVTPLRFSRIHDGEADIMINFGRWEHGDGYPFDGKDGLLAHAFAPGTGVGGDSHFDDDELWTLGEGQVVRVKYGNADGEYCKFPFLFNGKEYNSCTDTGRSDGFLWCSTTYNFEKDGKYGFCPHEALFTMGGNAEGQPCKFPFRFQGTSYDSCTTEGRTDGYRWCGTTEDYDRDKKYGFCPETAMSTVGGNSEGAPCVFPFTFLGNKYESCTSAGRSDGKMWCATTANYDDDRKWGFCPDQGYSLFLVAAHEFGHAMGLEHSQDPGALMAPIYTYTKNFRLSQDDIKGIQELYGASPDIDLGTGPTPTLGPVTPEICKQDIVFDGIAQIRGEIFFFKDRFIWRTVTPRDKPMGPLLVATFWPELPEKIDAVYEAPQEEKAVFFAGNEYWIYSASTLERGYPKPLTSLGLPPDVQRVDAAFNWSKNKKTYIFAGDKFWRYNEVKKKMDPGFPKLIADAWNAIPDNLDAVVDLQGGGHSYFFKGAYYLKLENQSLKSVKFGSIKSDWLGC

| inhibition of enzyme activity (type IV collagenase) | Molecule | conversion of 70 kDa band to 62 kDa form (type IV procollagenase) |
| --- | --- | --- |
|  | O=C(O)CN(CCN(CC(=O)O)CC(=O)O)CC(=O)O [EDTA] | completely inhibited |
| 80% | TMRKPRCGNPDVAN [Peptide 74, TMRKPRCGNPDVAN] |  |
